13 compounds from ChEMBL document CHEMBL3400082, “Synthesis of 6-aryl-substituted sulfocoumarins and investigation of their carbonic anhydrase inhibitory action” (Bioorg Med Chem, 2015) can be followed below.

One experiment concerns the target Carbonic anhydrase 9 (Homo sapiens, UniProt Q16790). The experiment can be described thus: Inhibition of human tumor-associated carbonic anhydrase 9 by stopped-flow CO2 hydrase assay.
The target of the next experiment is Carbonic anhydrase 2 (Homo sapiens, UniProt P00918). The experiment can be described thus: Inhibition of human cytosolic carbonic anhydrase 2 by stopped-flow CO2 hydrase assay.
The next experiment has as its target Carbonic anhydrase 1 (Homo sapiens, UniProt P00915). Nature of the experiment: Inhibition of human cytosolic carbonic anhydrase 1 by stopped-flow CO2 hydrase assay.

Sequence of Carbonic anhydrase 1 (P00915 whole entry): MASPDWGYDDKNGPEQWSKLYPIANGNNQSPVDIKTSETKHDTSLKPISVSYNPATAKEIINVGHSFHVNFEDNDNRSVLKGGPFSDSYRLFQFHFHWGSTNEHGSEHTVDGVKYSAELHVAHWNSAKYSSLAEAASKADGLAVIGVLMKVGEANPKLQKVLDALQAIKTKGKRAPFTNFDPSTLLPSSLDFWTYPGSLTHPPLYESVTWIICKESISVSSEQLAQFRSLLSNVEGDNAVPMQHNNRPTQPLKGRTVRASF

The Ki is a dissociation constant, usually derived from enzyme kinetics or from competition with a known ligand. Lower therefore signals higher affinity. `O=S1(=O)C=Cc2cc(-c3ccc(OC(F)(F)F)cc3)ccc2O1`: the Ki is 0.0762 µM on Carbonic anhydrase 9, above 10 µM on Carbonic anhydrase 2 and above 10 µM at Carbonic anhydrase 1.

In the case of `O=S1(=O)C=Cc2cc(-c3cccc(C(F)(F)F)c3)ccc2O1`, the Ki at Carbonic anhydrase 9 is 0.0098 µM; on Carbonic anhydrase 2 it was above 10 µM; on Carbonic anhydrase 1 it was above 10 µM.

With `O=S1(=O)C=Cc2cc(-c3cccc(F)c3)ccc2O1`, the values for the Ki at Carbonic anhydrase 9, on Carbonic anhydrase 2 and on Carbonic anhydrase 1 were 0.0103 µM, above 10 µM and above 10 µM, respectively.

On to `COC(=O)c1cccc(-c2ccc3c(c2)C=CS(=O)(=O)O3)c1`, for which the results for the inhibition constant (Ki) at Carbonic anhydrase 9, at Carbonic anhydrase 2 and at Carbonic anhydrase 1 were 0.009 µM, above 10 µM and above 10 µM, respectively.

Consider `Cc1ccc(-c2ccc3c(c2)C=CS(=O)(=O)O3)cc1`, for which the Ki at Carbonic anhydrase 9 was 0.0774 µM; at Carbonic anhydrase 2, above 10 µM; at Carbonic anhydrase 1 it was above 10 µM.

Take `CC(C)(C)c1ccc(-c2ccc3c(c2)C=CS(=O)(=O)O3)cc1`: the Ki at Carbonic anhydrase 9 is 0.0091 µM; on Carbonic anhydrase 2, above 10 µM; at Carbonic anhydrase 1, above 10 µM.

As for `COc1ccc(-c2ccc3c(c2)C=CS(=O)(=O)O3)cc1`, the Ki at Carbonic anhydrase 9 is 0.0709 µM; at Carbonic anhydrase 2, above 10 µM; at Carbonic anhydrase 1, above 10 µM.

As for `O=S1(=O)C=Cc2cc(-c3ccc(C(F)(F)F)cc3)ccc2O1`, the Ki on Carbonic anhydrase 9 is 0.0297 µM; at Carbonic anhydrase 2, above 10 µM; at Carbonic anhydrase 1 it was above 10 µM.

Turning to `O=S1(=O)C=Cc2cc(-c3ccc(F)cc3)ccc2O1`, the figures for the inhibition constant (Ki) on Carbonic anhydrase 9, on Carbonic anhydrase 2 and at Carbonic anhydrase 1 were 0.0953 µM, above 10 µM and above 10 µM, respectively.

With `O=S1(=O)C=Cc2cc(-c3ccc(Cl)c(Cl)c3)ccc2O1`, the results for the inhibition constant (Ki) on Carbonic anhydrase 9, at Carbonic anhydrase 2 and on Carbonic anhydrase 1 were 0.0094 µM, above 10 µM and above 10 µM, respectively.

As for `O=S1(=O)C=Cc2cc(-c3ccccc3)ccc2O1`, the inhibition constant Ki at Carbonic anhydrase 9 was 0.0599 µM; on Carbonic anhydrase 2 it was above 10 µM; on Carbonic anhydrase 1 it was above 10 µM.

Take `CC(C)Oc1ccc(-c2ccc3c(c2)C=CS(=O)(=O)O3)cc1`: the Ki at Carbonic anhydrase 9 was 0.0098 µM; at Carbonic anhydrase 2, above 10 µM; at Carbonic anhydrase 1, above 10 µM.

With `Cc1ccccc1-c1ccc2c(c1)C=CS(=O)(=O)O2`, the inhibitory constant (Ki) at Carbonic anhydrase 9 was 0.0708 µM; at Carbonic anhydrase 2, above 10 µM; on Carbonic anhydrase 1 it was above 10 µM.
